Legend:
in vivo = assay: in vivo; parameters: species or system Sprague-Dawley (SD) rats; settings: Sprague-Dawley, plasma, rat
Protocol: At each time, 0.5 mL of blood was collected in the heparin sodium tubes. Plasma was separated by centrifugation at 4000 rpm for 10 min and stored below −80 °C until bioanalysis. Oasis PRiME HLB SPE cartridges (1 cc/30 mg, Waters, Milford, MA, USA) were used to process the plasma samples (Supplementary Materials).
The generic layout of instrumentation setup of the LVDI-UHPLC-MS/MS was conducted on a Shimadzu UHPLC system consisting of two LC-20ADXR pumps, a DGU-20A3R degasser, and a CBM-20A controller (Kyoto, Japan) with a SCIEX 4500 QTRAP mass spectrometer mounted with an electron spray ionization (ESI) interface as well as an electronic 6-port/2-channel valve (Foster City, CA, USA). Analyst software package (version 1.6.2, SCIEX) was implemented to control and synchronize the entire system, and also for data acquisition and processing. A single analytical run was fragmented into two phases, namely, loading and elution phases, by switching the electronic valve (Figure 2). At the loading phase, the valve was maintained at A-channel. The specimen aliquot of large volume delivered from the auto-sampler was captured onto a guard column. Meanwhile, the pumps were responsible for delivering the mobile phase at a high flow rate, aiming to dilute the sample solvent, thus facilitating the candidate constituents to concentrate on the pre-guard column. Then, the valve was automatically switched to the B-channel to trigger the elution phase. The trapped components were flushed from the pre-guard column into an analytical column, and underwent multiple reaction monitoring (MRM) analysis on the optimized LC gradients. The detailed information of LVDI-UHPLC-MS/MS analysis for pharmacokinetic and cocktail studies is shown in the Supplementary Materials section.

CYP1A2 = target: T1, CYP1A2 (Rattus norvegicus, UniProt P04799); assay: In vitro cocktail CYP450 activity assay in rat liver microsomes, CYP1A2 (phenacetin probe)
T1 sequence (P04799 1-513): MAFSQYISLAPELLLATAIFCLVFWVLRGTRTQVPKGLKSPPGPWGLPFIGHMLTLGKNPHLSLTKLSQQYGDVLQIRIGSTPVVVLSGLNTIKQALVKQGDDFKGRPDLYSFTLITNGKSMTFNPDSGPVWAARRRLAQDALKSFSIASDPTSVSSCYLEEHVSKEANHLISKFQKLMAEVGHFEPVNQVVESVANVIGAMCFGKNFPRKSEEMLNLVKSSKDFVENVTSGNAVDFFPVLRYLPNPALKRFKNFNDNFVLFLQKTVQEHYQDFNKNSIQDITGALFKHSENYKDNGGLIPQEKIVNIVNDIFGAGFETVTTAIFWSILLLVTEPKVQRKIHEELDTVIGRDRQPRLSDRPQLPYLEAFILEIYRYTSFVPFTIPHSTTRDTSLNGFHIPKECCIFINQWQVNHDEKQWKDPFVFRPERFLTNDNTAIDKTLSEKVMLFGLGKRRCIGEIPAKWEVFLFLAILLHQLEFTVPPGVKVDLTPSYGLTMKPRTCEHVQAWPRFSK
Protocol: (§1) (OHBUP-[D6]) and 5 nM 4′-hydroxydiclofenac-[^13C6] (OHDIC-[^13C6]) as internal standards (ISs). […]
(§2) standard addition experiments. Each group included four concentration levels. For the PK […]
(§3) The probe compounds, viz. […]
(§4) chosen after incubating all the recruited substrates. In order to assure the linear relationship […]
(§5) The incubation system was also optimized in terms of substrate concentrations. The substrates concentrations of […]

CYP2E1 [1] = target: T2, CYP2E1 (Rattus norvegicus, UniProt P05182); settings: IC50 CYP2E1, single components; RLM 0.2 mg/mL, 15 min, triplicate, mean ± SD
Protocol: (§6) For the cocktail assay, the activity is expressed as the percentage of activity remaining comparing with that of a control sample containing no inhibitor. […] All the data were described as mean ± standard deviation (SD). Normality assumptions were tested by the Kolmogorov–Smirnov statistic setting p = 0.10 as the limit for rejection of the null hypothesis of normality. If the distribution of the data was normal with equal variances, a two-sided test was performed at the 5% level of significance. The Welch’s correction was then applied when the underlying variances were not equal. When the assumption of normality must be rejected, the Mann-Whitney test, a non-parametric equivalent of the independent-measures t-test, was used.

CYP2C19 = assay: In vitro cocktail CYP450 activity assay in rat liver microsomes, CYP2C19 (omeprazole probe)
Protocol: as §1, §2, §3, §4, §5

CYP2C9 = assay: In vitro cocktail CYP450 activity assay in rat liver microsomes, CYP2C9 (tolbutamide probe)
Protocol: as §1, §2, §3, §4, §5

CYP2B6 = assay: In vitro cocktail CYP450 activity assay in rat liver microsomes, CYP2B6 (bupropion probe)
Protocol: as §1, §2, §3, §4, §5

CYP3A4 = assay: in vitro; settings: Sprague-Dawley, rat, pH 7.4
Protocol: as §1, §2, §3, §4, §5

CYP2D6 = assay: in vitro; settings: Sprague-Dawley, rat
Protocol: as §1, §2, §3, §4, §5

CYP2E1 [2] = target: T2, CYP2E1; settings: at the Cmax level in rat plasma, calculated from the dose–response curve
Protocol: as §6

[3] = at the Cmax level in rat plasma, calculated from the dose–response curve

T2 sequence (P05182 whole entry): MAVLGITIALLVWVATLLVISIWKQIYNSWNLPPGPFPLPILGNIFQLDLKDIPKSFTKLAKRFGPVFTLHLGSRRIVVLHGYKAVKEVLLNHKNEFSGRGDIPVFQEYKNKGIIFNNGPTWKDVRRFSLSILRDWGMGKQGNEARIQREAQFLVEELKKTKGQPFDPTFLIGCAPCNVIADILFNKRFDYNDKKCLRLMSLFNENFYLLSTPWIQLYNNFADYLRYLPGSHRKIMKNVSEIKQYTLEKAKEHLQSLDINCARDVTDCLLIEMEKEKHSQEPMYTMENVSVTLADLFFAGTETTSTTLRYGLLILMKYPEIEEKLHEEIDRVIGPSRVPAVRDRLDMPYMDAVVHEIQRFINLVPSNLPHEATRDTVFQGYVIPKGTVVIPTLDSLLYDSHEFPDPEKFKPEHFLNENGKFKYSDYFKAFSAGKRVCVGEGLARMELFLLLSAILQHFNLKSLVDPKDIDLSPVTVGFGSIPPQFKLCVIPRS

CC(C)=CCC[C@](C)(O[C@@H]1O[C@H](CO[C@@H]2O[C@H](CO)[C@@H](O)[C@H](O)[C@H]2O)[C@@H](O)[C@H](O)[C@H]1O)[C@H]1CC[C@]2(C)[C@@H]1[C@H](O)C[C@@H]1[C@@]3(C)CC[C@H](O[C@@H]4O[C@H](CO)[C@@H](O)[C@H](O)[C@H]4O[C@@H]4O[C@H](CO)[C@@H](O)[C@H](O)[C@H]4O)C(C)(C)[C@@H]3CC[C@]12C [GRb1, ginsenoside Rb1]
concentration at […] (in vivo; 0.083 h after oral CNP): 18.7 ± 4.36 ng/mL
concentration at 0.25 h (in vivo; 0.25 h after oral CNP): 22.5 ± 4.27 ng/mL
concentration at 0.5 h (in vivo; 0.5 h after oral CNP): 36.1 ± 7.79 ng/mL
concentration at 1 h (in vivo; 1 h after oral CNP): 45.5 ± 3.29 ng/mL
concentration at 1.5 h (in vivo; 1.5 h after oral CNP): 54.6 ± 10.9 ng/mL
concentration at 2 h (in vivo; 2 h after oral CNP): 60.5 ± 12 ng/mL
concentration at 3 h (in vivo; 3 h after oral CNP): 69.5 ± 9.4 ng/mL
concentration at 4 h (in vivo; 4 h after oral CNP): 83.9 ± 31.8 ng/mL
concentration at 6 h (in vivo; 6 h after oral CNP): 113 ± 74.6 ng/mL
concentration at 8 h (in vivo; 8 h after oral CNP): 80 ± 20.6 ng/mL
concentration at 12 h (in vivo; 12 h after oral CNP): 63.9 ± 28.4 ng/mL
concentration at 24 h (in vivo; 24 h after oral CNP): 22.4 ± 4.86 ng/mL
concentration at 48 h (in vivo; 48 h after oral CNP): 19.4 ± 3.81 ng/mL
concentration at 72 h (in vivo; 72 h after oral CNP): 9.62 ± 1.02 ng/mL
concentration at 96 h (in vivo; 96 h after oral CNP): 6.43 ± 2.45 ng/mL
AUC(0-inf) (in vivo; po, 60 mg/kg): 2810 ± 618 ng·h/mL
AUC(0-t) (in vivo; po, 60 mg/kg): 2320 ± 683 ng·h/mL
Cmax (in vivo; po, 60 mg/kg): 113 ± 41.8 ng/mL
Tmax (in vivo; po, 60 mg/kg): 5.5 ± 1.8 h
half-life (in vivo; po, 60 mg/kg): 36.9 ± 9.65 h
concentration at 0.25 h (in vivo; po, 60 mg·kg^−1): 27.9 ± 4.54 ng/mL
concentration at 0.5 h (in vivo; po, 60 mg·kg^−1): 38.1 ± 3.67 ng/mL
concentration at 1 h (in vivo; po, 60 mg·kg^−1): 53.5 ± 12 ng/mL
concentration at 1.5 h (in vivo; po, 60 mg·kg^−1): 58.4 ± 12.4 ng/mL
concentration at 2 h (in vivo; po, 60 mg·kg^−1): 61.9 ± 19.5 ng/mL
concentration at 3 h (in vivo; po, 60 mg·kg^−1): 78.1 ± 12.8 ng/mL
concentration at 4 h (in vivo; po, 60 mg·kg^−1): 86.9 ± 41 ng/mL
concentration at 6 h (in vivo; po, 60 mg·kg^−1): 107 ± 42.1 ng/mL
concentration at 8 h (in vivo; po, 60 mg·kg^−1): 75.7 ± 26.3 ng/mL
concentration at 12 h (in vivo; po, 60 mg·kg^−1): 53.9 ± 19.1 ng/mL
concentration at 24 h (in vivo; po, 60 mg·kg^−1): 19.2 ± 5.86 ng/mL
concentration at 48 h (in vivo; po, 60 mg·kg^−1): 18.9 ± 8.97 ng/mL
concentration at 72 h (in vivo; po, 60 mg·kg^−1): 9.45 ± 3.37 ng/mL
concentration at 96 h (in vivo; po, 60 mg·kg^−1): 6.79 ± 1.89 ng/mL
IC50 (CYP1A2; IC50 CYP1A2, single components, RLM 0.2 mg/mL, 15 min, triplicate, mean ± SD): 5.84 ± 0.14 µM
Response (% control) CYP1A2 (CYP1A2; [3]): 79.30 % control
IC50 (CYP2E1 [1]): 28 ± 2.39 µM
IC50 at 15 min (CYP2C19; Sprague-Dawley, rat, pooled rat liver microsomes, pH 7.4, probe omeprazole (1.07 µM, in seven-probe cocktail), IC50 CYP2C19, single components, RLM 0.2 mg/mL, 15 min, triplicate, mean ± SD): 16.8 ± 2.52 µM
Response (% control) CYP2C19 (CYP2C19; [3]): 98.58 % control
IC50 at 15 min (CYP2C9; Sprague-Dawley, rat, pooled rat liver microsomes, pH 7.4, probe tolbutamide (18 µM, in seven-probe cocktail), IC50 CYP2C9, single components, RLM 0.2 mg/mL, 15 min, triplicate, mean ± SD): 17.6 ± 2.03 µM
Response (% control) CYP2C9 (CYP2C9; [3]): 99.70 % control
IC50 at 15 min (CYP2B6; Sprague-Dawley, rat, pooled rat liver microsomes, pH 7.4, probe bupropion (90 µM, in seven-probe cocktail), IC50 CYP2B6, single components, RLM 0.2 mg/mL, 15 min, triplicate, mean ± SD): 121 ± 10.9 µM
Response (% control) CYP2B6 (CYP2B6; [3]): 96.46 % control
Response (% control) CYP3A4 (CYP3A4; 15 min): 99.99 % control
IC50 at 15 min (CYP3A4; microsomes): 30 ± 2.47 µM
Response (% control) CYP2D6 (CYP2D6; 15 min, pH 7.4): 98.58 % control
IC50 at 15 min (CYP2D6; microsomes, pH 7.4, IC50 CYP2D6): 17.1 ± 1.29 µM
Response (% control) CYP2E1 (CYP2E1 [2]): 99.99 % control

From article PMC7076352 (Pharmaceutics, 2020)
